These results are taken from patent US10583130B2, “Pharmaceutical formulations compromising nitrocatechol derivatives and methods of making thereof” (BIAL—Portela & Cᵃ, S.A., priority 2009, dated 2020).

A short description of data set [1]: Bulk / apparent density (m/V0). In kind it is physicochemical. As to conditions: prior to granulation and/or formulation. The source says: It is within the ability of one of skill in the art to determine the bulk density of a compound or composition using methods generally accepted in the art. However, suitable methods include, for example, the European Pharmacopeia edition 6, Test 2.9.15 “apparent volume,” pages 285-286, EDQM, 2007, and USP 31, vol. 1 test <616> page 231-232, The United States Pharmacopeia Convention, 2008. An example of a suitable method is described below:
Apparatus: • settling apparatus capable of producing in 1 minute 250±15 taps from a height of 3±0.2 mm. The support for the graduated cylinder with its holder, has a mass of 450±5 g • a 250 ml graduated cylinder (2 ml intervals) with a mass of 220±40 g
Method: Into a dry cylinder, introduce without compacting, 100.0 g (m g) of the test substance. Secure the cylinder in its holder. Read the unsettled apparent volume (V0) to the nearest milliliter. Carry out 10, 500 and 1250 taps and read the corresponding volumes V10, V500, V1250, to the nearest milliliter. If the difference between V500 and V1250 is greater than 2 ml, carry out another 1250 taps.
Alternatively, if it is not possible to select 100.0 g, select a test sample of any mass but with a volume between 50 ml and 250 ml, measure its apparent volume, V0 as described above, and weigh the sample and specify the mass in the expression of results. Bulk/apparent density may then be determined in g/ml using the following formula: m/V0 where m is the mass in grams and V0 the unsettled apparent volume.
(§1) The granules and final compositions were evaluated for bulk and tapped density using the methods described above. Flowability was also accessed by testing the flow rate through an orifice described in USP 31, vol. 1, test <1174>, The United States Pharmacopeia Convention, 2008. The flowability was measured as the mass per time flowing through the 10 mm diameter opening of a glass funnel.

The nature of data set [2]: Flowability: flow rate through 10 mm orifice of a glass funnel (USP <1174>). The class given is physicochemical. The settings on record: API before granulation.
From the text: It is within the ability of one of skill in the art to determine the flowability of a compound or composition using methods generally accepted in the art. However, suitable methods include but are not limited to, testing the flow rate through an orifice described in USP 31, vol. 1, test <1174>, The United States Pharmacopeia Convention, 2008, in which case, the flowability may be measured as the mass per time flowing through the 10 mm diameter opening of a glass funnel.
as §1

As for `Cc1nc(Cl)c(-c2noc(-c3cc(O)c(O)c([N+](=O)[O-])c3)n2)c(C)c1Cl` [5-[3-(2,5-dichloro-4,6-dimethylpyridin-3-yl)-[1,2,4]oxadiazol-5-yl]-3-nitrobenzene-1,2-diol], the “bulk density of the API alone” value in data set [1] was “around 0.2 g/ml”.

Regarding `Cc1c(Cl)c(C)[n+]([O-])c(Cl)c1-c1noc(-c2cc(O)c(O)c([N+](=O)[O-])c2)n1` [API, 2,5-dichloro-3-(5-(3,4-dihydroxy-5-nitrophenyl)-1,2,4-oxadiazol-3-yl)-4,6-dimethylpyridine 1-oxide], the “flow of the API alone” value in data set [2] was “no flow”. The results for the “bulk density of the API alone” value in data set [1] and in data set [1] (listed as 2,5-dichloro-3-(5-(3,4-dihydroxy-5-nitrophenyl)-1,2,4-oxadiazol-3-yl)-4,6-dimeth) were less than 0.1 g/mL and “less than 0.1 g/ml”, respectively.
